From patent publication US6224887A, “Antifungal nail lacquer and method using same” (MacroChem Corporation, priority 1999, dated 2001)
Read-outs that look alike come from different tables or passages of the source.

Conditions: lacquer, 1200 h
Description: Using the above formulation with 5% Econazole and 53% ethanol, stability testing was performed. […] In addition, gas chromatography quantitative analysis was conducted on samples stored in glass containers for 50 days at 40° C./75%RH at varying pH (5.2, 6.83, 12.2; by addition of acid or base, as necessary).
The analytical test procedure involves a simple direct dilution and injection method for determining levels of both antifungal agent and enhancer compound in the same chromatogram, i.e., without separation steps. […] Specifically, a Hewlett-Packard Model 5890 Chromatograph with a Hewlett-Packard 50+(crosslinked 50% phenylmethylsiloxane), 30 m, 0.32 mm ID, 0.50μ film (Cat. #19091L) column and Model 7673 Autoinjector, operating in split mode (split flow 0.7 mL/min; split ratio 0.652:1), using methanol as wash solvent and hexanophenone as internal standard, was used for the analysis. In Table 2 the results are reported for the average of six injections.

Compound | SEPA assay (pH 5.2) | SEPA assay (pH 6.83) | SEPA assay (pH 12.2) | Econazole Assay (pH 5.2) | Econazole Assay (pH 6.83) | Econazole Assay (pH 12.2)
CCCCCCCCCC1OCCO1 [SEPA, 2-n-nonyl-1,3-dioxolane] | 93.85% | 98.41% | 99.36% |  |  | 
Clc1ccc(COC(Cn2ccnc2)c2ccc(Cl)cc2Cl)cc1 (stereo not drawn) [Econazole] |  |  |  | 94.29% | 96.67% | 97.60%
